# Measured values from patent publication US20230301300A1, “HERBICIDAL COMPOSITIONS” (SYNGENTA CROP PROTECTION AG, priority 2020, published 2023).
# What was measured:
# Assay in all cases: B2 Post-Emergence Efficacy - Test 2
# Assay type in all cases: in vivo
# [1] = tested on: Euphorbia hetrophylla (EPHHL); settings: 15 days after application, 0-100 scale
# Procedure, shortened: (§1)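 Score 0–100 (0 none, 100 kill), 15 d after spraying. Treatment: IF50 formulation in aqueous spray, adjuvant Genapol X080 at 0.2% v/v, applied to plants 12 d after sowing. Glasshouse day/night 24/18 or 20/16 °C, 16 h light, 65% humidity.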
# [2] = tested on: Panicum miliaceum (PANMI); settings: 15 days after application, 0=no damage, 100=total kill
# Procedure, shortened: as §1
# [3] = tested on: Xanthium strumarium (XANST); settings: 15 days after application, 0-100 scale
# Procedure, shortened: as §1
# [4] = tested on: Brachiaria plantaginea (BRAPL); settings: 15 days after application, 0=no damage, 100=total kill
# Procedure, shortened: as §1
# [5] = tested on: Sida spinosa (SIDSP); settings: 15 days after application, 0-100 scale
# Procedure, shortened: as §1
# [6] = tested on: Galium aparine (GALAP); settings: 15 days after application, 0-100 scale
# Procedure, shortened: as §1
# [7] = tested on: Glycine max (GLXMA); settings: 15 days after application; for Herbicidal activity GLXMA: 0-100 scale; for Herbicidal activity on a 0-100 scale, GLXMA: 0=no damage, 100=total kill
# Procedure, shortened: as §1
# [8] = tested on: Bidens pilosa (BIDPI); settings: 15 days after application, 0-100 scale
# Procedure, shortened: as §1
# [9] = tested on: Zea mays (ZEAMX); settings: 15 days after application; for Herbicidal activity ZEAMX: 0-100 scale; for Herbicidal activity on a 0-100 scale, ZEAMX: 0=no damage, 100=total kill
# Procedure, shortened: as §1
# [10] = tested on: Setaria faberi (SETFA); settings: 15 days after application, 0=no damage, 100=total kill
# Procedure, shortened: as §1
# [11] = tested on: Sorghum bicolour (SORVU); settings: 15 days after application, 0=no damage, 100=total kill
# Procedure, shortened: as §1
# [12] = tested on: Orysa sativa (ORYSA); settings: 15 days after application; for Herbicidal activity ORYSA: 0-100 scale; for Herbicidal activity on a 0-100 scale, ORYSA: 0=no damage, 100=total kill
# Procedure, shortened: as §1
# [13] = tested on: Digitaria sanguinalis (DIGSA); settings: 15 days after application, 0=no damage, 100=total kill
# Procedure, shortened: as §1
# [14] = tested on: Poa annua (POAAN); settings: 15 days after application, 0-100 scale
# Procedure, shortened: as §1
# [15] = tested on: Eleisine indica (ELEIN); settings: 15 days after application, 0=no damage, 100=total kill
# Procedure, shortened: as §1
# [16] = tested on: Avena fatua (AVEFA); settings: 15 days after application, 0-100 scale
# Procedure, shortened: as §1
# [17] = tested on: Alopecurus myosuroides (ALOMY); settings: 15 days after application, 0-100 scale
# Procedure, shortened: as §1
smiles,measurement,setting,value
"Cc1nn(C)c(=O)c(-c2c(F)ccc(Cl)c2CCc2ccc(Cl)cc2)c1OC(=O)C(C)C [Compound 1.089, [5-[3-chloro-2-[2-(4-chlorophenyl)ethyl]-6-fluoro-phenyl]-1,3-dimethyl-6-oxo-pyridazin-4-yl] 2-methylpropanoate]",Herbicidal activity EPHHL,[1]; 15 g/Ha,80
same,Herbicidal activity EPHHL,[1]; 30 g/Ha,100
same,Herbicidal activity EPHHL,[1]; 60 g/Ha,100
same,Herbicidal activity EPHHL,[1]; 125 g/Ha,100
same,Herbicidal activity EPHHL,[1]; 250 g/Ha,100
same,Herbicidal activity EPHHL,[1]; 500 g/Ha,100
same,"Herbicidal activity on a 0-100 scale, PANMI",[2]; 15 g/Ha,0
same,"Herbicidal activity on a 0-100 scale, PANMI",[2]; 30 g/Ha,20
same,"Herbicidal activity on a 0-100 scale, PANMI",[2]; 60 g/Ha,50
same,"Herbicidal activity on a 0-100 scale, PANMI",[2]; 125 g/Ha,60
same,"Herbicidal activity on a 0-100 scale, PANMI",[2]; 250 g/Ha,80
same,"Herbicidal activity on a 0-100 scale, PANMI",[2]; 500 g/Ha,90
same,Herbicidal activity XANST,[3]; 30 g/Ha,90
same,Herbicidal activity XANST,[3]; 60 g/Ha,80
same,Herbicidal activity XANST,[3]; 125 g/Ha,90
same,Herbicidal activity XANST,[3]; 250 g/Ha,90
same,Herbicidal activity XANST,[3]; 500 g/Ha,100
same,"Herbicidal activity on a 0-100 scale, BRAPL",[4]; 15 g/Ha,80
same,"Herbicidal activity on a 0-100 scale, BRAPL",[4]; 30 g/Ha,90
same,"Herbicidal activity on a 0-100 scale, BRAPL",[4]; 250 g/Ha,90
same,"Herbicidal activity on a 0-100 scale, BRAPL",[4]; 500 g/Ha,90
same,Herbicidal activity SIDSP,[5]; 30 g/Ha,80
same,Herbicidal activity SIDSP,[5]; 60 g/Ha,90
same,Herbicidal activity SIDSP,[5]; 125 g/Ha,100
same,Herbicidal activity SIDSP,[5]; 250 g/Ha,100
same,Herbicidal activity SIDSP,[5]; 500 g/Ha,100
same,Herbicidal activity GALAP,[6]; 15 g/Ha,10
same,Herbicidal activity GALAP,[6]; 30 g/Ha,20
same,Herbicidal activity GALAP,[6]; 125 g/Ha,30
same,Herbicidal activity GALAP,[6]; 250 g/Ha,30
same,Herbicidal activity GALAP,[6]; 500 g/Ha,90
same,Herbicidal activity GLXMA,[7]; 30 g/Ha,70
same,"Herbicidal activity on a 0-100 scale, GLXMA",[7]; 30 g/Ha,70
same,Herbicidal activity GLXMA,[7]; 60 g/Ha,80
same,"Herbicidal activity on a 0-100 scale, GLXMA",[7]; 60 g/Ha,80
same,Herbicidal activity GLXMA,[7]; 250 g/Ha,100
same,"Herbicidal activity on a 0-100 scale, GLXMA",[7]; 250 g/Ha,100
same,Herbicidal activity GLXMA,[7]; 500 g/Ha,100
same,"Herbicidal activity on a 0-100 scale, GLXMA",[7]; 500 g/Ha,100
same,Herbicidal activity BIDPI,[8]; 15 g/Ha,70
same,Herbicidal activity BIDPI,[8]; 30 g/Ha,60
same,Herbicidal activity BIDPI,[8]; 60 g/Ha,70
same,Herbicidal activity BIDPI,[8]; 125 g/Ha,80
same,Herbicidal activity BIDPI,[8]; 250 g/Ha,80
same,Herbicidal activity BIDPI,[8]; 500 g/Ha,100
same,Herbicidal activity ZEAMX,[9]; 15 g/Ha,0
same,"Herbicidal activity on a 0-100 scale, ZEAMX",[9]; 15 g/Ha,0
same,Herbicidal activity ZEAMX,[9]; 30 g/Ha,20
same,"Herbicidal activity on a 0-100 scale, ZEAMX",[9]; 30 g/Ha,20
same,Herbicidal activity ZEAMX,[9]; 60 g/Ha,30
same,"Herbicidal activity on a 0-100 scale, ZEAMX",[9]; 60 g/Ha,30
same,Herbicidal activity ZEAMX,[9]; 125 g/Ha,30
same,"Herbicidal activity on a 0-100 scale, ZEAMX",[9]; 125 g/Ha,30
same,Herbicidal activity ZEAMX,[9]; 250 g/Ha,90
same,"Herbicidal activity on a 0-100 scale, ZEAMX",[9]; 250 g/Ha,90
same,Herbicidal activity ZEAMX,[9]; 500 g/Ha,100
same,"Herbicidal activity on a 0-100 scale, ZEAMX",[9]; 500 g/Ha,100
same,"Herbicidal activity on a 0-100 scale, SETFA",[10]; 15 g/Ha,0
same,"Herbicidal activity on a 0-100 scale, SETFA",[10]; 30 g/Ha,20
same,"Herbicidal activity on a 0-100 scale, SETFA",[10]; 60 g/Ha,30
same,"Herbicidal activity on a 0-100 scale, SETFA",[10]; 125 g/Ha,60
same,"Herbicidal activity on a 0-100 scale, SETFA",[10]; 250 g/Ha,60
same,"Herbicidal activity on a 0-100 scale, SETFA",[10]; 500 g/Ha,80
same,"Herbicidal activity on a 0-100 scale, SORVU",[11]; 15 g/Ha,0
same,"Herbicidal activity on a 0-100 scale, SORVU",[11]; 30 g/Ha,60
same,"Herbicidal activity on a 0-100 scale, SORVU",[11]; 60 g/Ha,70
same,"Herbicidal activity on a 0-100 scale, SORVU",[11]; 125 g/Ha,90
same,"Herbicidal activity on a 0-100 scale, SORVU",[11]; 250 g/Ha,90
same,"Herbicidal activity on a 0-100 scale, SORVU",[11]; 500 g/Ha,90
same,Herbicidal activity ORYSA,[12]; 15 g/Ha,0
same,"Herbicidal activity on a 0-100 scale, ORYSA",[12]; 15 g/Ha,0
same,Herbicidal activity ORYSA,[12]; 30 g/Ha,0
same,"Herbicidal activity on a 0-100 scale, ORYSA",[12]; 30 g/Ha,0
same,Herbicidal activity ORYSA,[12]; 60 g/Ha,0
same,"Herbicidal activity on a 0-100 scale, ORYSA",[12]; 60 g/Ha,0
same,Herbicidal activity ORYSA,[12]; 125 g/Ha,10
same,"Herbicidal activity on a 0-100 scale, ORYSA",[12]; 125 g/Ha,10
same,Herbicidal activity ORYSA,[12]; 250 g/Ha,20
same,"Herbicidal activity on a 0-100 scale, ORYSA",[12]; 250 g/Ha,20
same,Herbicidal activity ORYSA,[12]; 500 g/Ha,50
same,"Herbicidal activity on a 0-100 scale, ORYSA",[12]; 500 g/Ha,50
same,"Herbicidal activity on a 0-100 scale, DIGSA",[13]; 15 g/Ha,0
same,"Herbicidal activity on a 0-100 scale, DIGSA",[13]; 30 g/Ha,0
same,"Herbicidal activity on a 0-100 scale, DIGSA",[13]; 60 g/Ha,0
same,"Herbicidal activity on a 0-100 scale, DIGSA",[13]; 125 g/Ha,10
same,"Herbicidal activity on a 0-100 scale, DIGSA",[13]; 250 g/Ha,40
same,"Herbicidal activity on a 0-100 scale, DIGSA",[13]; 500 g/Ha,30
same,Herbicidal activity POAAN,[14]; 15 g/Ha,20
same,Herbicidal activity POAAN,[14]; 30 g/Ha,40
same,Herbicidal activity POAAN,[14]; 60 g/Ha,70
same,Herbicidal activity POAAN,[14]; 125 g/Ha,90
same,Herbicidal activity POAAN,[14]; 250 g/Ha,80
same,Herbicidal activity POAAN,[14]; 500 g/Ha,70
same,"Herbicidal activity on a 0-100 scale, ELEIN",[15]; 15 g/Ha,0
same,"Herbicidal activity on a 0-100 scale, ELEIN",[15]; 30 g/Ha,0
same,"Herbicidal activity on a 0-100 scale, ELEIN",[15]; 60 g/Ha,70
same,"Herbicidal activity on a 0-100 scale, ELEIN",[15]; 125 g/Ha,80
same,"Herbicidal activity on a 0-100 scale, ELEIN",[15]; 250 g/Ha,90
same,"Herbicidal activity on a 0-100 scale, ELEIN",[15]; 500 g/Ha,90
same,Herbicidal activity AVEFA,[16]; 15 g/Ha,30
same,Herbicidal activity AVEFA,[16]; 30 g/Ha,70
same,Herbicidal activity AVEFA,[16]; 60 g/Ha,70
same,Herbicidal activity AVEFA,[16]; 125 g/Ha,80
same,Herbicidal activity AVEFA,[16]; 250 g/Ha,90
same,Herbicidal activity AVEFA,[16]; 500 g/Ha,90
same,Herbicidal activity ALOMY,[17]; 15 g/Ha,20
same,Herbicidal activity ALOMY,[17]; 30 g/Ha,50
same,Herbicidal activity ALOMY,[17]; 60 g/Ha,50
same,Herbicidal activity ALOMY,[17]; 125 g/Ha,80
same,Herbicidal activity ALOMY,[17]; 250 g/Ha,80
same,Herbicidal activity ALOMY,[17]; 500 g/Ha,90
